Reference: patent US12358919B2, “Antibacterial compounds” (Universita' degli Studi di Siena, priority 2019, dated 2025)

Key:
[1] = system: polymyxin E1-resistant Acinetobacter baumannii (strain N50) clinical isolate; format: cell-based; conditions: A. baumannii N50 (colistin-resistant); compound + polymyxin E1
Protocol: (§1) Growth inhibition or killing of bacteria was investigated using conventional methods widely described in the scientific literature. Parameters such as the Minimum Inhibitory Concentration (MIC) were determined as described in Clinical Laboratory Standard Institute (CLSI) document M07 “Methods for Dilution Antimicrobial Susceptibility Tests for Bacteria That Grow Aerobically, 11th Edition” (2018). Synergistic activity of the compounds described in the present specification were determined by measuring the variation of the MIC's compound in the absence and presence of a sub-inhibitory concentration of a suitable antibacterial agent, such as polymyxin E1. Furthermore, the Fractional Inhibitory Concentrations (FICs) were measured using a chequerboard analysis to determine the average FIC index (FICI), whose value is known to characterize the interaction between two compounds and/or drugs (≤0.5, synergistic interaction; >0.5 and <2, no interaction, additive effect; ≥2, antagonistic interaction). Furthermore, the selectivity of the compounds was investigated by measuring their cytotoxic effect on mammalian cell lines (e.g. HeLa cells).
“Chequerboard” method was used to further investigate the synergistic activity of pyrazolo[4,3-b]pyridin-6-carboxamides when this compounds are combined with polymyxin E1. […]

[2] = in vitro; format: cell-based; conditions: human
Protocol: as §1
The selectivity and potential cytotoxic effect of antibacterial compounds is a key aspect of such drugs. […]

Q: For CCCCn1c(=O)c(C(=O)NC23CC4CC(CC(C4)C2)C3)c(O)c2nn(C)cc21 [Ib, N-(Adamantan-1-yl)-4-(1-butyl)-4,5-dihydro-7-hydroxy-2-methyl-5-oxo-2H-pyrazolo[4,3-b]pyridin-6-carboxamide], which “Average FIC index” value [1] is on record?
A: 0.30

Q: And the IC50 at 24 h [2]?
A: > 256 µg/mL
